One assay has as its target T1, SULT1A3 F222A, H226A (Homo sapiens, UniProt P0DMM9, F222A/H226A).
T1 construct: N-His/GST/MBP triple-tag (N, cleaved yes); made in house; host or cells: E. coli BL21(DE3)
Briefly: Binding-site mutation effect on Ki CMP8, F222A, H226A. It is filed as biochemical. The settings on record: H226A versus wild type. As for the experimental part:
Initial-Rate Studies. Initial-rate parameters for the labeled or mutant SULT1A3 constructs were determined using a previously described 1-HP assay (25). Briefly, reactions were initiated by addition of PAPS (0.50 mM, 17×Km) to a solution containing enzyme (20 nM, active sites), 1-HP (2.0 μM, ˜24×Km), and KPO4 (50 mM), pH 7.5, 25±2° C. Reactions were monitored via fluorescence change associated with the conversion of 1-HP to 1-HP-S (λex=325 nm, λem=370 nm). Keq for the 1-HP sulfonation reaction is […]. Given the reaction conditions outlined above, ≥99% of 1-HP is converted to 1-HP-S, and ˜0.4% of PAPS is converted to PAP at equilibrium. […] Reaction progress curves were analyzed to obtain initial-rate parameters as described previously (26,27).
Inhibition studies. Inhibition parameters were determined under conditions identical to those described above (see, Initial-Rate Studies) except that [1-HP] was increased to 5.0 μM (˜61×Km) and inhibitor concentration was varied between 0.20-20×Ki. Ki was obtained using a least-squares fit to the following partial inhibition equation (25,28): v=kcat·(Ki+(1/kcat inh)·[I])/(Ki+[I]), where kcat inh is enzyme turnover at saturating substrates and allosteric inhibitor.
Confirming the Structure. The structure was validated by testing its ability to predict the consequences of mutations on the initial-rate parameters of the enzyme. […]

The next assay addresses SULT1A3 (Homo sapiens, UniProt P0DMM9). Briefly: Pre-steady state binding of PAP to SULT1A3 (stopped-flow fluorescence). Further details: Wild-type and mutant SULT1A3 coding regions were inserted into a pGEX-6P expression vector; N-His/GST/MBP triple-tag (N, cleaved yes); made in house; host or cells: E. coli BL21(DE3). The settings on record: PAP release, saturating CMP8. As for the experimental part: The effect of CMP8 on PAP binding to SULT1A3 was monitored using a stopped-flow spectrofluorimeter (λex=290 nm, λem≥330 nm (cutoff filter)). […] Each kobs value was determined in triplicate and the averaged values are shown. kon and koff are given, respectively, by the slopes and intercepts obtained from linear least-squares fitting of the kobs vs [PAP] plots.
(§1) Pre-Steady State Binding Studies. The pre-steady state binding of PAP to SULT1A3 was monitored via ligand-induced enzyme fluorescence changes in SULT1A3 using an Applied Photophysics SX20 stopped-flow spectrofluorimeter (32). […] All reactions were pseudo first order in [PAP]. The observed rate constant (kobs) at a given [PAP] was taken as the average of three independent progress curves each obtained from a single-exponential fit of 6-9 averaged, binding progress curves. The rate constants, kon and koff, were obtained from the slopes and intercepts predicted by linear least-squares analysis of four-points kobs vs [PAP] plots.
Given that CMP8 interacts with the SULT1A3 cap, it was reasoned it might inhibit by stabilizing the cap-closed form(s) of the enzyme. To test this hypothesis, the microscopic rate constants for nucleotide binding and release were determined in the presence and absence of saturating CMP8. The binding reactions were monitored via intrinsic fluorescence changes associated with ligand binding (30-32) (see, Methods). The resulting kobs vs [PAP] plots are presented in FIG. 4. kon and koff are obtained, respectively, from the slopes and intercepts of the plots (30,31), see Table C. […] Thus, CMP8 does indeed slow nucleotide release by increasing Kiso and thus stabilizing the closed form of the cap.
as §1, with “(29).” for “(32).”

SULT1A3, sequence (P0DMM9 whole entry): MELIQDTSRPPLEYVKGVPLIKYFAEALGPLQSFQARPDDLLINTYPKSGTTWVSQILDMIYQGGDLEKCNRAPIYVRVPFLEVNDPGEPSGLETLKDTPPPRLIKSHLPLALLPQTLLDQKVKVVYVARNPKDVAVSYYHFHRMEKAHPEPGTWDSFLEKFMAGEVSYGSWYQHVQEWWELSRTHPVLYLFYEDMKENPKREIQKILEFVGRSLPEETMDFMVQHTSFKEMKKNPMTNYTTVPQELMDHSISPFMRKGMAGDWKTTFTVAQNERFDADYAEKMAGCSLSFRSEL
T1 sequence (P0DMM9 whole entry F222A/H226A): as the sequence (P0DMM9 whole entry) above, with F222A, H226A counted along it

As for `CC(C)Cc1ccc2cc(CO)ccc2n1` [Compound 8, (2-Isobutylquinolin-6-yl)methanol], on SULT1A3 F222A, H226A, the “increase in Ki CMP8” value was determined as 60 fold. The “koff (+CMP8)/koff (−CMP8), ratio of nucleotide off-rate constants” value at SULT1A3 is given as 0.41 (±0.05).
